Experimental data as given in the NIST ThermoML archive (doi:10.1016/j.jct.2006.05.008).

Experiment: molar heat capacity at constant pressure; wn = mass fraction of the nth substance listed
Conditions: Small (less than 1 g) adiabatic calorimetry

CCCCn1cc[n+](C)c1.[Br-] [1-butyl-3-methylimidazolium bromide] + O
Conditions | molar heat capacity at constant pressure [J/K/mol]
152.96 K, 101.3 kPa, Glass, w2 = 0.00482 | 151.04
155.53 K, 101.3 kPa, Glass, w2 = 0.00482 | 152.59
158.09 K, 101.3 kPa, Glass, w2 = 0.00482 | 154.17
160.66 K, 101.3 kPa, Glass, w2 = 0.00482 | 155.77
163.24 K, 101.3 kPa, Glass, w2 = 0.00482 | 157.38
165.81 K, 101.3 kPa, Glass, w2 = 0.00482 | 158.96
168.39 K, 101.3 kPa, Glass, w2 = 0.00482 | 160.57
170.97 K, 101.3 kPa, Glass, w2 = 0.00482 | 162.11
173.55 K, 101.3 kPa, Glass, w2 = 0.00482 | 163.78
176.13 K, 101.3 kPa, Glass, w2 = 0.00482 | 165.35
178.71 K, 101.3 kPa, Glass, w2 = 0.00482 | 167.03
181.3 K, 101.3 kPa, Glass, w2 = 0.00482 | 168.7
183.89 K, 101.3 kPa, Glass, w2 = 0.00482 | 170.41
186.48 K, 101.3 kPa, Glass, w2 = 0.00482 | 172.04
189.06 K, 101.3 kPa, Glass, w2 = 0.00482 | 173.78
191.65 K, 101.3 kPa, Glass, w2 = 0.00482 | 175.6
194.25 K, 101.3 kPa, Glass, w2 = 0.00482 | 177.44
196.84 K, 101.3 kPa, Glass, w2 = 0.00482 | 179.31
199.44 K, 101.3 kPa, Glass, w2 = 0.00482 | 181.34
201.78 K, 101.3 kPa, Glass, w2 = 0.00482 | 183.39
203.87 K, 101.3 kPa, Glass, w2 = 0.00482 | 185.23
205.95 K, 101.3 kPa, Glass, w2 = 0.00482 | 187.63
208.05 K, 101.3 kPa, Glass, w2 = 0.00482 | 190.57
209.63 K, 101 kPa, Liquid, w2 = 0.0495 | 190.63
210.13 K, 101.3 kPa, Glass, w2 = 0.00482 | 194.11
211.86 K, 101 kPa, Liquid, w2 = 0.0495 | 190.98
212.18 K, 101.3 kPa, Glass, w2 = 0.00482 | 199.24
213.95 K, 101 kPa, Liquid, w2 = 0.0495 | 191.32
214.19 K, 101.3 kPa, Glass, w2 = 0.00482 | 209.18
216.04 K, 101 kPa, Liquid, w2 = 0.0495 | 191.7
216.1 K, 101.3 kPa, Glass, w2 = 0.00482 | 229.46
218.13 K, 101 kPa, Liquid, w2 = 0.0495 | 191.97

Crystal
Conditions | molar heat capacity at constant pressure [J/K/mol]
153.47 K, w2 = 0.00482 | 140.32
154 K, w2 = 0.0495 | 102.07
154.55 K, w2 = 0.0169 | 127.32
154.86 K, w2 = 0.0051 | 140.76
156.05 K, w2 = 0.00482 | 141.71
156.62 K, w2 = 0.0169 | 128.46
156.86 K, w2 = 0.0495 | 103.54
157.46 K, w2 = 0.0051 | 142.19
158.64 K, w2 = 0.00482 | 143.05
158.69 K, w2 = 0.0169 | 129.54
159.72 K, w2 = 0.0495 | 105.03
160.06 K, w2 = 0.0051 | 143.6
160.76 K, w2 = 0.0169 | 130.58
161.22 K, w2 = 0.00482 | 144.52
162.58 K, w2 = 0.0495 | 107.12
162.67 K, w2 = 0.0051 | 145.04
162.83 K, w2 = 0.0169 | 131.81
163.81 K, w2 = 0.00482 | 145.98
164.91 K, w2 = 0.0169 | 133.35
165.35 K, w2 = 0.0051 | 146.89
165.42 K, w2 = 0.0495 | 110.43
166.4 K, w2 = 0.00482 | 147.42
166.98 K, w2 = 0.0169 | 135.28
167.95 K, w2 = 0.0051 | 148.6
168.2 K, w2 = 0.0495 | 119.37
168.99 K, w2 = 0.00482 | 148.99
169.05 K, w2 = 0.0169 | 138.58
170.54 K, w2 = 0.0051 | 150.98
170.84 K, w2 = 0.0495 | 133.87
171.1 K, w2 = 0.0169 | 143.34
171.58 K, w2 = 0.00482 | 150.69
173.12 K, w2 = 0.0051 | 153.72
173.15 K, w2 = 0.0169 | 146.3
173.43 K, w2 = 0.0495 | 137.89
174.17 K, w2 = 0.00482 | 152.56
175.22 K, w2 = 0.0169 | 148.17
175.7 K, w2 = 0.0051 | 155.58
176.02 K, w2 = 0.0495 | 137.25
176.76 K, w2 = 0.00482 | 154.52
177.3 K, w2 = 0.0169 | 149.6
178.27 K, w2 = 0.0051 | 157.05
178.63 K, w2 = 0.0495 | 136.83
179.35 K, w2 = 0.00482 | 156.32
179.39 K, w2 = 0.0169 | 150.75
180.85 K, w2 = 0.0051 | 158.5
181.26 K, w2 = 0.0495 | 136.85
181.47 K, w2 = 0.0169 | 151.73
181.94 K, w2 = 0.00482 | 158.09
182.13 K, w2 = 0.0495 | 137.03
183.43 K, w2 = 0.0051 | 159.93
183.55 K, w2 = 0.0169 | 152.69
183.89 K, w2 = 0.0495 | 137.25
184.55 K, w2 = 0.00482 | 159.97
184.8 K, w2 = 0.0495 | 137.33
185.63 K, w2 = 0.0169 | 153.62
186 K, w2 = 0.0051 | 161.23
186.52 K, w2 = 0.0495 | 137.88
187.15 K, w2 = 0.00482 | 161.48
187.43 K, w2 = 0.0495 | 137.82
187.72 K, w2 = 0.0169 | 154.64
188.57 K, w2 = 0.0051 | 162.67
189.16 K, w2 = 0.0495 | 138.51
189.75 K, w2 = 0.00482 | 163.1
189.81 K, w2 = 0.0169 | 155.65
190.07 K, w2 = 0.0495 | 138.44
191.13 K, w2 = 0.0051 | 164.05
191.82 K, w2 = 0.0495 | 139.23
191.89 K, w2 = 0.0169 | 156.63
192.35 K, w2 = 0.00482 | 164.66
192.72 K, w2 = 0.0495 | 139.22
193.7 K, w2 = 0.0051 | 165.5
193.98 K, w2 = 0.0169 | 157.56
194.48 K, w2 = 0.0495 | 139.88
194.95 K, w2 = 0.00482 | 166.1
195.38 K, w2 = 0.0495 | 139.99
196.08 K, w2 = 0.0169 | 158.61
196.26 K, w2 = 0.0051 | 166.89
197.16 K, w2 = 0.0495 | 140.43
197.55 K, w2 = 0.00482 | 167.55
198.05 K, w2 = 0.0495 | 140.75
198.17 K, w2 = 0.0169 | 159.59
198.82 K, w2 = 0.0051 | 168.3
200.15 K, w2 = 0.00482 | 169
200.26 K, w2 = 0.0169 | 160.53
200.73 K, w2 = 0.0495 | 141.5
201.38 K, w2 = 0.0051 | 169.66
202.36 K, w2 = 0.0169 | 161.49
202.75 K, w2 = 0.00482 | 170.67
203.43 K, w2 = 0.0495 | 142.32
203.93 K, w2 = 0.0051 | 171.24
204.46 K, w2 = 0.0169 | 162.5
205.36 K, w2 = 0.00482 | 172.16
206.48 K, w2 = 0.0051 | 172.9
206.55 K, w2 = 0.0169 | 163.54
207.97 K, w2 = 0.00482 | 173.71
208.05 K, w2 = 0.0495 | 144.92
208.65 K, w2 = 0.0169 | 164.5
209.03 K, w2 = 0.0051 | 175.02
210.59 K, w2 = 0.00482 | 175.21
210.75 K, w2 = 0.0495 | 151.13
210.77 K, w2 = 0.0169 | 165.47
211.56 K, w2 = 0.0051 | 176.7
212.87 K, w2 = 0.0169 | 166.55
213.21 K, w2 = 0.00482 | 176.73
213.38 K, w2 = 0.0495 | 150.25
214.1 K, w2 = 0.0051 | 177.3
214.97 K, w2 = 0.0169 | 167.69
215.83 K, w2 = 0.00482 | 178.25
215.99 K, w2 = 0.0495 | 154.67
216.64 K, w2 = 0.0051 | 178.89
216.82 K, w2 = 0.00482 | 178.65
217.07 K, w2 = 0.0169 | 169.05
217.64 K, w2 = 0.0169 | 168.8
